# Measurements as given in patent publication US11807625B2, “Capsid inhibitors for the prevention of HIV” (Gilead Sciences, Inc., priority 2019, dated 2023).
# Read-outs that look alike come from different tables or passages of the source.
# Assay: PK of compound of Formula (Ia) after single subcutaneous dose of solution formulations in beagle dogs
# Type: in vivo
# Conditions: male, beagle, dog, plasma, sc, 12 mg/kg, mean ± SD
# Method: Formulations containing the compound of Formula (Ia), or a pharmaceutically acceptable salt thereof, were prepared as solutions and optionally administered subcutaneously or intramuscularly to rats, rabbits, and/or dogs.
# A solution of about 400 mg/mL of the compound of Formula (Ia) having 17.00 w/w % water, 36.40 w/w % PEG 300, 35.20 w/w % of a sodium salt of a compound of Formula (Ia), 5.00 w/w % ethanol, and 6.40 w/w % poloxamer 188 was prepared. The solution was administered subcutaneously to male beagle dogs at a dose level of about 12 mg/kg and male Wistar Han rats at a dose level of about 50 mg/kg. The pharmacokinetic profiles were determined, and the results for dogs are summarized in Table and Table, while the results for rats are summarized in Table and Table below.
# A solution of about 500 mg/mL of the compound of Formula (Ia) having 14.06 w/w % water, 30.12 w/w % PEG 300, […] of a sodium salt of a compound of Formula (Ia), 5.00 w/w % ethanol, and 6.40 w/w % poloxamer 188 was prepared. The solution was administered subcutaneously to male beagle dogs at a dose level of about 12 mg/kg and male Wistar Han rats at a dose level of about 50 mg/kg. The pharmacokinetic profiles were determined, and the results for dogs are summarized in Table and Table, while the results for rats are summarized in Table and Table below.
# A solution of about 300 mg/mL of the compound of Formula (Ia) having 23.33 w/w % water, 48.99 w/w % PEG 300, 26.47 w/w % of a sodium salt of a compound of Formula (Ia), and 1.21 w/w % poloxamer 188 was prepared. The solution was administered subcutaneously to male beagle dogs at a dose level of about 6 mg/kg and male Wistar Han rats at a dose level of about 50 mg/kg. The pharmacokinetic profiles were determined, and the results for dogs are summarized in Table and Table, while the results for rats are summarized in Table and Table below.
# A solution of about 400 mg/mL of the compound of Formula (Ia) having 18.80 w/w % water, 40.25 w/w % PEG 300, 34.38 w/w % of a sodium salt of a compound of Formula (Ia), 5.00 w/w % ethanol, and 1.57 w/w % poloxamer 188 was prepared. The solution was administered subcutaneously to male beagle dogs at a dose level of about 12 mg/kg and male Wistar Han rats at a dose level of about 50 mg/kg. The pharmacokinetic profiles were determined, and the results for dogs are summarized in Table and Table, while the results for rats are summarized in Table and Table below.
# A solution of about 500 mg/mL of the compound of Formula (Ia) having 16.29 w/w % water, 34.88 w/w % PEG 300, 41.92 w/w % of a sodium salt of a compound of Formula (Ia), 5.00 w/w % ethanol, and 1.91 w/w % poloxamer 188 was prepared. The solution was administered subcutaneously to male beagle dogs at a dose level of about 12 mg/kg and male Wistar Han rats at a dose level of about 50 mg/kg. The pharmacokinetic profiles were determined, and the results for dogs are summarized in Table and Table, while the results for rats are summarized in Table and Table below.
# A solution of about 400 mg/mL of the compound of Formula (Ia) having 20.90 w/w % water, 44.72 w/w % PEG 300, and 34.38 w/w % of a sodium salt of a compound of Formula (Ia) was prepared. The solution was administered subcutaneously to male beagle dogs at a dose level of about 12 mg/kg and male Wistar Han rats at a dose level of about 50 mg/kg. The pharmacokinetic profiles were determined, and the results for dogs are summarized in Table and Table, while the results for rats are summarized in Table and Table below.
# A solution of about 400 mg/mL of the compound of Formula (Ia) having 19.90 w/w % water, 42.59 w/w % PEG 300, 34.38 w/w % of a sodium salt of a compound of Formula (Ia), and 3.13 w/w % poloxamer 188 was prepared. The solution was administered subcutaneously to male beagle dogs at a dose level of about 12 mg/kg and male Wistar Han rats at a dose level of about 50 mg/kg. […]
# [1] = n = 3 dogs, SC 12 mg/kg, solution T, 400 mg/mL
# [2] = n = 3 dogs, SC 12 mg/kg, solution U, 500 mg/mL
smiles,measurement,setting,value
CC(C)(C#Cc1ccc(-c2ccc(Cl)c3c(NS(C)(=O)=O)nn(CC(F)(F)F)c23)c([C@H](Cc2cc(F)cc(F)c2)NC(=O)Cn2nc(C(F)(F)F)c3c2C(F)(F)[C@@H]2C[C@H]32)n1)S(C)(=O)=O [compound of Formula (Ia)],AUC(0-t),"male beagle dogs, single SC 12 mg/kg, 400 mg/mL solution Z (3.13% poloxamer 188), n = 3, read-out: AUC0-3024 h",175 ± 32 µM·h
same,AUC(0-t),"male beagle dogs, single SC 12 mg/kg, 400 mg/mL solution Z (3.13% poloxamer 188), n = 3, read-out: AUC0-3696 h",177 ± 31 µM·h
same,Cmax,"male beagle dogs, single SC 12 mg/kg, 500 mg/mL solution X (5.00% ethanol, 1.91% poloxamer 188), n = 3",0.125 ± 0.095 µM
same,AUC(0-t),"male beagle dogs, single SC 12 mg/kg, 500 mg/mL solution X (5.00% ethanol, 1.91% poloxamer 188), n = 3, read-out: AUC0-24 h",0.663 ± 0.157 µM·h
same,AUC(0-t),"male beagle dogs, single SC 12 mg/kg, 500 mg/mL solution X (5.00% ethanol, 1.91% poloxamer 188), n = 3, read-out: AUC0-168 h",6.01 ± 1.87 µM·h
same,AUC(0-t),"male beagle dogs, single SC 12 mg/kg, 500 mg/mL solution X (5.00% ethanol, 1.91% poloxamer 188), n = 3, read-out: AUC0-672 h",46.1 ± 32.5 µM·h
same,AUC(0-t),"male beagle dogs, single SC 12 mg/kg, 500 mg/mL solution X (5.00% ethanol, 1.91% poloxamer 188), n = 3, read-out: AUC0-1344 h",90.8 ± 60 µM·h
same,AUC(0-t),"male beagle dogs, single SC 12 mg/kg, 500 mg/mL solution X (5.00% ethanol, 1.91% poloxamer 188), n = 3, read-out: AUC0-1680 h",106 ± 68 µM·h
same,AUC(0-t),"male beagle dogs, single SC 12 mg/kg, 500 mg/mL solution X (5.00% ethanol, 1.91% poloxamer 188), n = 3, read-out: AUC0-2016 h",116 ± 75 µM·h
same,AUC(0-t),"male beagle dogs, single SC 12 mg/kg, 500 mg/mL solution X (5.00% ethanol, 1.91% poloxamer 188), n = 3, read-out: AUC0-2253 h",124 ± 44 µM·h
same,AUC(0-t),"male beagle dogs, single SC 12 mg/kg, 500 mg/mL solution X (5.00% ethanol, 1.91% poloxamer 188), n = 3, read-out: AUC0-2688 h",130 ± 83 µM·h
same,AUC(0-t),"male beagle dogs, single SC 12 mg/kg, 500 mg/mL solution X (5.00% ethanol, 1.91% poloxamer 188), n = 3, read-out: AUC0-3024 h",135 ± 86 µM·h
same,AUC(0-t),"male beagle dogs, single SC 12 mg/kg, 500 mg/mL solution X (5.00% ethanol, 1.91% poloxamer 188), n = 3, read-out: AUC0-4032 h",145 ± 90 µM·h
same,AUC(0-t),"male beagle dogs, single SC 12 mg/kg, 500 mg/mL solution X (5.00% ethanol, 1.91% poloxamer 188), n = 3, read-out: AUC0-4368 h",148 ± 91 µM·h
same,AUC(0-inf),[1],219 ± 54 µM·h
same,Cmax,[1],0.353 ± 0.148 µM
same,Tmax,[1],13 ± 8.54 days
same,half-life,[1],14.7 days
same,AUC(0-t),"n = 3 dogs, SC 12 mg/kg, solution T, 400 mg/mL, read-out: AUC0-24 h",2.64 ± 0.5 µM·h
same,AUC(0-t),"n = 3 dogs, SC 12 mg/kg, solution T, 400 mg/mL, read-out: AUC0-168 h",36 ± 26.2 µM·h
same,AUC(0-t),"n = 3 dogs, SC 12 mg/kg, solution T, 400 mg/mL, read-out: AUC0-336 h",76.1 ± 46.7 µM·h
same,AUC(0-t),"n = 3 dogs, SC 12 mg/kg, solution T, 400 mg/mL, read-out: AUC0-672 h",148 ± 51 µM·h
same,AUC(0-t),"n = 3 dogs, SC 12 mg/kg, solution T, 400 mg/mL, read-out: AUC0-1334 h",197 ± 48 µM·h
same,AUC(0-t),"n = 3 dogs, SC 12 mg/kg, solution T, 400 mg/mL, read-out: AUC0-2016 h",213 ± 53 µM·h
same,AUC(0-t),"n = 3 dogs, SC 12 mg/kg, solution T, 400 mg/mL, read-out: AUC0-2352 h",216 ± 54 µM·h
same,AUC(0-inf),[2],141 ± 14 µM·h
same,Cmax,[2],0.175 ± 0.029 µM
same,Tmax,[2],14.3 ± 11.5 days
same,half-life,[2],18.3 days
same,AUC(0-t),"n = 3 dogs, SC 12 mg/kg, solution U, 500 mg/mL, read-out: AUC0-24 h",1.8 ± 0.85 µM·h
same,AUC(0-t),"n = 3 dogs, SC 12 mg/kg, solution U, 500 mg/mL, read-out: AUC0-168 h",12.9 ± 5.1 µM·h
same,AUC(0-t),"n = 3 dogs, SC 12 mg/kg, solution U, 500 mg/mL, read-out: AUC0-336 h",33.9 ± 14.2 µM·h
same,AUC(0-t),"n = 3 dogs, SC 12 mg/kg, solution U, 500 mg/mL, read-out: AUC0-672 h",78.5 ± 11.4 µM·h
same,AUC(0-t),"n = 3 dogs, SC 12 mg/kg, solution U, 500 mg/mL, read-out: AUC0-1334 h",118 ± 6 µM·h
same,AUC(0-t),"n = 3 dogs, SC 12 mg/kg, solution U, 500 mg/mL, read-out: AUC0-2016 h",133 ± 11 µM·h
same,AUC(0-t),"n = 3 dogs, SC 12 mg/kg, solution U, 500 mg/mL, read-out: AUC0-2352 h",136 ± 12 µM·h
same,Cmax,"n = 3 dogs, SC 12 mg/kg, solution W, 400 mg/mL",0.2 ± 0.09 µM
same,AUC(0-t),"n = 3 dogs, SC 12 mg/kg, solution W, 400 mg/mL, read-out: AUC0-24 h",0.505 ± 0.194 µM·h
same,AUC(0-t),"n = 3 dogs, SC 12 mg/kg, solution W, 400 mg/mL, read-out: AUC0-168 h",6.82 ± 3.38 µM·h
same,AUC(0-t),"n = 3 dogs, SC 12 mg/kg, solution W, 400 mg/mL, read-out: AUC0-672 h",65.1 ± 43.1 µM·h
same,AUC(0-t),"n = 3 dogs, SC 12 mg/kg, solution W, 400 mg/mL, read-out: AUC0-1344 h",123 ± 54 µM·h
same,AUC(0-t),"n = 3 dogs, SC 12 mg/kg, solution W, 400 mg/mL, read-out: AUC0-1680 h",142 ± 50 µM·h
same,AUC(0-t),"n = 3 dogs, SC 12 mg/kg, solution W, 400 mg/mL, read-out: AUC0-2016 h",154 ± 47 µM·h
same,AUC(0-t),"n = 3 dogs, SC 12 mg/kg, solution W, 400 mg/mL, read-out: AUC0-2253 h",164 ± 44 µM·h
same,AUC(0-t),"n = 3 dogs, SC 12 mg/kg, solution W, 400 mg/mL, read-out: AUC0-2688 h",170 ± 42 µM·h
same,AUC(0-t),"n = 3 dogs, SC 12 mg/kg, solution W, 400 mg/mL, read-out: AUC0-3024 h",174 ± 41 µM·h
same,AUC(0-t),"n = 3 dogs, SC 12 mg/kg, solution W, 400 mg/mL, read-out: AUC0-4032 h",181 ± 39 µM·h
same,AUC(0-t),"n = 3 dogs, SC 12 mg/kg, solution W, 400 mg/mL, read-out: AUC0-4368 h",182 ± 38 µM·h
